From patent US20230181768A1, “TISSUE-TARGETING COMPLEX” (PHARMPUR GMBH, priority 2017, published 2023)
“Also recorded” adds a separate entry of the source. Read-outs that look alike come from different tables or passages of the source.

How the values were obtained:
[1] = system: ILM model substrate (silk granules); conditions: for Ratio λmax with MS and reference 632-635 nm: 632 nm (7a), 634 nm (7b, 7d), 635 nm (7c); for binding to the model substrate (in words): UV/vis, before and after treatment with model substrate
Experimental: To examine the binding of various dyes to the ILM model substrate, UV/vis measurements of the dyes Brilliant Blue G (BBG), compounds 7a-d, and Indocyanine green (ICG) were performed at various concentrations both before and after treatment with the model substrate. The aim of these measurements is to compare the binding strength of the individual dyes.
Stock solutions of the dyes with a concentration of 5 mg/mL were prepared using phosphate-buffered saline (PBS) at physiological pH 7.4.
To ensure measurement is as accurate as possible, the dye-model substrate solutions and the references were not prepared separately, but likewise used as stock solutions.
Subsequently, 6 mg of ILM model substrate plus 6 mL of dye solution and a reference solution comprising only 6 mL of dye solution were stirred for exactly 10 minutes and then centrifuged together for 8 minutes at 6000 rpm. The solutions were photographed and the carefully decanted supernatants analyzed by UV/vis spectroscopy. The ratios of the absorption maxima λmax with the model substrate to the absorption maximum λmax of the reference were calculated. This allowed the binding strengths of the individual dyes to be compared.

[2] = Solubility / precipitation of dye in phosphate-buffered saline; type: physicochemical; conditions: PBS
Text: Indocyanine green is one of the most important dyes in chromovitrectomy, particularly in the field of ILM peeling. The dye does, however, give rise to some problems and also to handling difficulties. Although it has long since been used for staining the inner limiting membrane and epiretinal membranes, studies have shown the dye to have numerous disadvantages.

Row | Compound | Ratio λmax with MS and reference 588 nm ([1]; 0.005 mg/mL in PBS pH 7.4) | Ratio λmax with MS and reference 632-635 nm ([1]; 0.005 mg/mL in PBS pH 7.4) | Ratio λmax with MS and reference 588 nm ([1]; 0.01 mg/mL in PBS pH 7.4) | Ratio λmax with MS and reference 632-635 nm ([1]; 0.01 mg/mL in PBS pH 7.4) | Ratio λmax with MS and reference 588 nm ([1]; 0.02 mg/mL in PBS pH 7.4) | Ratio λmax with MS and reference 632-635 nm ([1]; 0.02 mg/mL in PBS pH 7.4) | Ratio λmax with MS and reference 588 nm ([1]; 0.04 mg/mL in PBS pH 7.4) | Ratio λmax with MS and reference 632-635 nm ([1]; 0.04 mg/mL in PBS pH 7.4) | Ratio λmax with MS and reference 588 nm ([1]; 0.08 mg/mL in PBS pH 7.4) | Ratio λmax with MS and reference 632-635 nm ([1]; 0.08 mg/mL in PBS pH 7.4) | Ratio λmax with MS and reference 588 nm ([1]; 0.16 mg/mL in PBS pH 7.4) | Ratio λmax with MS and reference 632-635 nm ([1]; 0.16 mg/mL in PBS pH 7.4) | binding to the model substrate (in words) [1] | also measured
1 | CCCC[N+](C)(C)CCCNc1ccc(NCCC[N+](C)(C)CCCC)c2c1C(=O)c1ccccc1C2=O [7a, N,N′=(((9,10-dioxo-9,10-dihydroanthracene-1,4-diyl)bis(azanediyl))bis(propane-3,1-diy1))bis(N,N-dimethylbutan-1-aminium) bromide] | 54% | 54% | 52% | 52% | 54% | 55% | 57% | 58% | 67% | 69% | 76% | 78% | – | –
2 | CCCCCCCC[N+](C)(C)CCCNc1ccc(NCCC[N+](C)(C)CCCCCCCC)c2c1C(=O)c1ccccc1C2=O [7b, N,N′-(((9,10-dioxo-9,10-dihydroanthracene-1,4-diyl)bis(azanediyl))bis(propane-3,1-diyl))bis(N,N-dimethyloctan-1-aminium) bromide] | 11% | 9% | 10% | 8% | 6% | 6% | 8% | 8% | 18% | 19% | 32% | 34% | – | –
3 | CCCCCCCCCC[N+](C)(C)CCCNc1ccc(NCCC[N+](C)(C)CCCCCCCCCC)c2c1C(=O)c1ccccc1C2=O [7c, N,N′=(((9,10-dioxo-9,10-dihydroanthracene-1,4-diyl)bis(azanediyl))bis(propane-3,1-diyl))bis(N,N-dimethyldecan-1-aminium) Bromide] | 48% | 37% | 21% | 17% | 7% | 7% | 4% | 5% | 8% | 10% | 13% | 17% | – | –
4 | CCCCCCCCCCCC[N+](C)(C)CCCNc1ccc(NCCC[N+](C)(C)CCCCCCCCCCCC)c2c1C(=O)c1ccccc1C2=O [7d, N,N′(((9,10-dioxo-9,10-dihydroanthracene-1,4-diyl)bis(azanediyl))bis(propane-3,1-diyl))bis(N,N-dimethyldodecan-1-aminium) Bromide] | 12% | 13% | 7% | 8% | 3% | 4% | 3% | 3% | 1% | 2% | 18% | 18% | – | –
5 | CCOc1ccc(Nc2ccc(/C(=C3C=C/C(=[N+](/CC)Cc4cccc(S(=O)(=O)[O-])c4)C=C/3C)c3ccc(N(CC)Cc4cccc(S(=O)(=O)[O-])c4)cc3C)cc2)cc1.[Na+] [BBG, Brilliant Blue G, reference compound] | – | – | – | – | – | – | – | – | – | – | – | – | good binding | binding of the dye ([1]; 0.005 mg/mL in PBS pH 7.4): 76%; Ratio λmax with MS and reference ([1]; 0.005 mg/mL in PBS pH 7.4, maximum about 585 nm): 24%; Ratio λmax with MS and reference ([1]; 0.01 mg/mL in PBS pH 7.4, maximum about 585 nm): 32%; Ratio λmax with MS and reference ([1]; 0.02 mg/mL in PBS pH 7.4, maximum about 585 nm): 44%; Ratio λmax with MS and reference ([1]; 0.04 mg/mL in PBS pH 7.4, maximum about 585 nm): 48%; binding of the dye ([1]; 0.08 mg/mL in PBS pH 7.4): 48%; Ratio λmax with MS and reference ([1]; 0.08 mg/mL in PBS pH 7.4, maximum about 585 nm): 62%
6 | CC1(C)C(/C=C/C=C/C=C/C=C2\N(CCCCS(=O)(=O)O)c3ccc4ccccc4c3C2(C)C)=[N+](CCCCS(=O)(=O)[O-])c2ccc3ccccc3c21 [ICG, Indocyanine green, reference compound] | – | – | – | – | – | – | – | – | – | – | – | – | positive binding | solubility in saline solutions / phosphate-buffered saline [2]: poor solubility; also recorded: causes the compound to precipitate; Ratio λmax with MS and reference ([1]; 0.005 mg/mL in double-distilled water, 779/780 nm): 47%; Ratio λmax with MS and reference ([1]; 0.01 mg/mL in double-distilled water, 779/780 nm): 95%; Ratio λmax with MS and reference ([1]; 0.02 mg/mL in double-distilled water, 779/780 nm): 42%; Ratio λmax with MS and reference ([1]; 0.04 mg/mL in double-distilled water, 779/780 nm): 85%
